In assay [1] the target is MOR. As to conditions: cited from earlier work.
For assay [2], the system named is parental HEK293 cells. The class given is cell-based, human.
Assay [3] concerns MOR kinase pathways in HEK-MOR cells. The class given is cell-based, human.
The test system of assay [4] is MOR G-protein signaling in HEK-MOR cells. Format: cell-based, human.

Like-named read-outs stand apart in the source and are kept apart here.

Take `COc1ccc2c3c1O[C@H]1[C@@H](O)C=C[C@H]4[C@@H](C2)NCC[C@@]341` [(-)-norcodeine]: the Ki in assay [1] was 267 nM.

Take `O=C1/C(=C/c2ccccc2)C[C@@]2(O)[C@H]3Cc4ccc(O)c5c4[C@@]2(CCN3CC2CC2)[C@H]1O5` [BNTX]: the “DMR produced by ligand in parental HEK293 cells” value in assay [2] is given as “negative DMR”. Besides, the Ki in assay [1] was 18 nM.

As to `O=C(Cc1ccc(Cl)c(Cl)c1)N1CCCCC1CN1CCCC1` (stereo not drawn) [BRL-52537], the “maximal DMR response after SB202190 pretreatment vs untreated” value in assay [3] is given as “significantly reduced”. The “ligand-induced DMR in cholera toxin (CTx)-pretreated cells vs untreated” value in assay [4] was “reduce”. In addition, in assay [1], the Ki is 1560 nM.

On to `C[C@@H](NC(=O)[C@@H](N)Cc1ccc(O)cc1)C(=O)NCC(=O)N(C)[C@@H](Cc1ccccc1)C(=O)NCCO` [DAMGO], for which the “maximal DMR response after SB202190 pretreatment vs untreated” value in assay [3] was “not completely blunted”. Besides, in assay [4], the “ligand-induced DMR in pertussis toxin (PTx)-pretreated cells” value is given as “small P-DMR”.

In the case of `CN(C(=O)Cc1ccc(Cl)c(Cl)c1)[C@H](CN1CCCC1)c1cccc(N=C=S)c1` [DIPPA, 2-(3,4-Dichlorophenyl)-N-methyl-N-[(1S)-1-(3-isothiocyanatophenyl)-2-(1-pyrrolidinyl)ethyl]acetamide], in assay [3], the “late DMR response after U0126 pretreatment vs untreated” value is listed as “significantly suppressed”, the “maximal DMR response after SB202190 pretreatment vs untreated” value was “significantly reduced” and the “maximal DMR response after U0126 pretreatment vs untreated” value was “sensitive”. For the same compound, the IC50 in assay [1] is 1800 nM.

As for `CN(C(=O)Cc1ccc(Cl)c(Cl)c1)[C@H](CN1CCCC1)c1ccccc1` [ICI 199,441], the “DMR produced by ligand in parental HEK293 cells” value in assay [2] (ligand 10 µM) was “small N-DMR”.

As to `Oc1ccc2c3c1O[C@H]1c4c(c5ccccc5n4Cc4ccccc4)C[C@@]4(O)[C@@H](C2)N(CC2CC2)CC[C@]314` [N-benzylnaltrindole], the IC50 in assay [1] is 11.2 nM.

With `Oc1ccc2c3c1O[C@H]1c4oc5ccccc5c4C[C@@]4(O)[C@@H](C2)N(CC2CC2)CC[C@]314` [Naltriben], in assay [1], the Ki is 80.8 nM.

In the case of `C=CCN1CCC2(C)c3cc(O)ccc3CC1C2C` (stereo not drawn) [SKF10047], the Ki in assay [1] is 1900 nM.

For `NC(=O)[C@H](Cc1ccccc1)NC(=O)[C@H](Cc1ccccc1)NC(=O)[C@@H]1CCCN1C(=O)[C@@H](N)Cc1ccc(O)cc1` [endomorphin-2], in assay [4], the “ligand-induced DMR in cholera toxin (CTx)-pretreated cells vs untreated” value is on record as “reduce”. In addition, in assay [1], the Ki was 0.43 nM.

In the case of `C=CCN1CC[C@]23CCCC[C@H]2[C@H]1Cc1ccc(O)cc13` [levallorphan], in assay [1], the Ki is 1.7 nM.

Turning to `C=CC[N+]1(C)CC[C@]23c4c5ccc(O)c4O[C@H]2C(=O)CC[C@@]3(O)[C@H]1C5` (stereo partly drawn) [naloxone methionone], the Ki in assay [1] was 28.9 nM.

As to `COC(=O)[C@@H]1C[C@H](OC(C)=O)C(=O)[C@H]2[C@@]1(C)CC[C@H]1C(=O)O[C@H](c3ccoc3)C[C@]21C` [salvinorin A], the EC50 in assay [1] is […].

Regarding `COc1cccc(C2(O)CCCCC2CN(C)C)c1` (stereo not drawn) [tramadol], in assay [3], the “maximal DMR response after SB202190 pretreatment vs untreated” value was “significantly reduced” and the “maximal DMR response after U0126 pretreatment vs untreated” value is reported as “sensitive”.

Turning to `COC(=O)/C=C/C(=O)N[C@@H]1CC[C@@]2(O)[C@H]3Cc4ccc(O)c5c4[C@@]2(CCN3CC2CC2)[C@H]1O5` [β-funaltrexamine], in assay [3], the “late DMR response after SP100625 pretreatment vs untreated” value is “potentiated” and the “maximal DMR response after SP100625 pretreatment vs untreated” value is “enhanced”. For the same compound, the Ki in assay [1] is 0.33 nM.

Regarding (D-Ala^2, D-Leu^5) enkephalin, the Kd in assay [1] is 150 nM.

Turning to (met^5)-enkephalin, the Ki in assay [1] was 3 nM.

On to DPDPE, for which the Kd in assay [1] is 600 nM.

As for DSLET, the “maximal DMR response after SB202190 pretreatment vs untreated” value in assay [3] is “significantly reduced”. The Kd in assay [1] was 120 nM.

Turning to deltorphin II, the Kd in assay [1] was 3.3 nM.

Consider dynorphin A 1-8, for which the Ki in assay [1] was 22.3 nM.

Regarding dynorphin A 1-13, in assay [3], the “maximal DMR response after SB202190 pretreatment vs untreated” value is “significantly reduced” and the “maximal DMR response after SP100625 pretreatment vs untreated” value is “enhanced”. For the same compound, the Kd in assay [1] is 31 nM.

Regarding dynorphin B, the Ki in assay [1] was 13 nM.

With morphiceptin, the IC50 in assay [1] is 19.8 nM.

Consider nociceptin 1-13: ORL1 agonist, for which the Ki in assay [1] is 270 nM.

What is called Ki is the dissociation constant of the complex between target and ligand, obtained from inhibition or displacement. A word on the IC50: it is the concentration needed to halve the response being measured. Usually EC50 stands for the concentration at which the effect is half-maximal. Usually Kd stands for a measure of binding affinity in units of concentration.

The values are drawn from article PMC3189208 (PLoS ONE, 2011).
